In US12564597B2 (priority 2020, dated 2026):

Tests used:
[1] = Example 2B: similar metabolism analysis of further deuterated ibogaine analogs; type: in vitro ADME; conditions: present tense, no data
Method: A similar analysis is performed with each of CD2HO-ibogamine, CDH2O-ibogamine, CD3CD2O-ibogamine, CD3CH2O-ibogamine, CH3CD2O-ibogamine and CH3CDHO-ibogamine.

[2] = Buffer control for chemical instability in the incubation buffer; type: physicochemical; conditions: Kphos buffer pH 7.4, 37° C., no microsomes, minus NADPH
in vitro = assay: in vitro
Method: (§1) Metabolism Studies. Metabolic stability of test compounds was evaluated in liver microsomes from rat (RLM) and human (HLM). This was accomplished by incubating test compounds with microsomes and monitoring disappearance of parent compound as well as metabolite formation over time using LC-MS/MS in Multiple Reaction Monitoring mode (MRM).
(§2) Stock solutions of test compounds were prepared in DMSO at a concentration of 10 mM.
(§3) Total Incubation volume: 100 μL
(§4) Compound concentration: 10 μM
(§5) Protein Concentration: 0.5 mg/mL (0.25 mg/mL for positive controls)
(§6) From the above mix, 70 PL was added to individual wells of 96 well reaction plates and pre-incubated at 37° C. for 5 min. […] Reactions without NADPH and buffer controls (minus NADPH) at 0 min and 60 min were also incubated to rule out non-NADPH metabolism or chemical instability in the incubation buffer. All reactions were terminated using 100 μL of ice-cold acetonitrile containing internal standard (glipizide) at 0, 5, 15, 30 and 60 min.
(§7) Stock solution of noribogaine was prepared in DMSO at a concentration of 20 mM and serially diluted in DMSO to prepare 10, 3, 1, 0.3, 0.1 and 0.03 mM solutions respectively.
(§8) Samples were monitored for parent compounds disappearance and formation of metabolite in MRM mode using LC-MS/MS instrument (API-4000 with Waters UPLC).
(§9) The percent remaining of test compounds and positive control in each sample was determined by considering peak area ratio in the 0 minute sample as 100%.
(§10) In vitro intrinsic clearance (CL′int) (units in mL/min/kg) was calculated using the formula: […]
(§11) For human, monkey, dog, rat and mouse the liver weight are 20 gm, 32 gm, 32 gm, 40 gm and 90 gm respectively.

[3] = Metabolic stability and noribogaine formation in rat liver microsomes (RLM); conditions: for Percentage turnover of test compounds (percent remaining): 10 μM, +NADPH
Method: as §1, §2, §3, §4, §5, §6, §7, §8, §9, §10, §11

[4] = Plasma pharmacokinetics and brain distribution in male Wistar rats after a single intraperitoneal dose; conditions: for AUC(0-t) / Cmax / Tmax: ip, 40 mg/kg; for AUC(0-t): AUClast
Method: Formulation strengths for intraperitoneal administration was 4 mg/mL. A weighed quantity of compound was combined with an appropriate volume of vehicle (10% ethanol and 90% normal saline), the mixture was warmed to 55° C. and vortexed until a clear yellowish solution was obtained. The dosing volume administered was 10 mL/kg for intraperitoneal route.
Healthy male Wistar rats (8-12 weeks old) weighing between 280 to 300 g were procured from Global, India. Three rats were housed in each cage. […] Temperature and humidity were recorded by auto-controlled data logger system. All the animals were provided laboratory rodent diet (Envigo Research private Ltd, Hyderabad). Reverse osmosis water treated with ultraviolet light was provided ad libitum.
Blood samples (approximately 120 μL) were collected under light isoflurane anesthesia from retro orbital plexus from a set of three rats at specified time intervals. Samples were collected into labeled micro-tubes, containing K2EDTA solution (10 μL of 20% K2EDTA of solution per mL of blood) as an anticoagulant. Plasma was immediately harvested from the blood by centrifugation at 4000 rpm for 10 min at 4±2° C. and stored below −70±10° C. until bioanalysis.
Immediately, after blood collection animals were euthanized with excess CO2 and brain was isolated at each time point. Brain was rinsed three times in ice cold PBS (for 5-10 seconds/rinse using ˜5-10 mL fresh PBS in disposable petri dish for each rinse) and dried on blotting paper. Brain samples were homogenized using ice-cold phosphate buffer saline (pH 7.4) and homogenates were stored below −70±10° C. until analysis. Total homogenate volume was three times the tissue weight.
The extraction procedure for plasma and brain samples and the spiked plasma and brain calibration standards were identical: A 25 PL of study sample or spiked plasma and brain calibration standard was added to individual pre-labeled micro-centrifuge tubes followed by 100 PL of internal standard prepared in Acetonitrile (Glipizide, 500 ng/mL) was added except for blank, where 100 μL of Acetonitrile was added. Samples were vortexed for 5 minutes and then centrifuged for 10 minutes at a speed of 4000 rpm at 4° C. Following centrifugation, 100 μL of clear supernatant was transferred to a 96 well plate and analyzed using LC-MS/MS.
Non-compartmental analysis tool of Phoenix WinNonlin® (Version 7.0) was used to assess the pharmacokinetic parameters. Peak plasma concentrations (Cmax) and time for the peak plasma concentrations (Tmax) were the observed values. The areas under the concentration time curve (AUClast and AUCinf) were calculated by linear trapezoidal rule. The terminal elimination rate constant, ke was determined by regression analysis of the linear terminal portion of the log plasma concentration-time curve.

[5] = 0.08 h after CD3O-ibogamine 40 mg/kg i.p.
[6] = 0.08 h after ibogaine 40 mg/kg i.p.
[7] = 0.5 h after CD3O-ibogamine 40 mg/kg i.p.
[8] = 0.5 h after ibogaine 40 mg/kg i.p.
[9] = 1 h after CD3O-ibogamine 40 mg/kg i.p.
[10] = 1 h after ibogaine 40 mg/kg i.p.
[11] = 2 h after CD3O-ibogamine 40 mg/kg i.p.
[12] = 2 h after ibogaine 40 mg/kg i.p.
[13] = 3 h after CD3O-ibogamine 40 mg/kg i.p.
[14] = 3 h after ibogaine 40 mg/kg i.p.
[15] = male, Wistar, rat, in vivo, plasma, analyte after CD3O-ibogamine 40 mg/kg i.p.
[16] = male, Wistar, rat, in vivo, plasma, analyte after ibogaine 40 mg/kg i.p.
[17] = male, Wistar, rat, in vivo, brain, analyte after CD3O-ibogamine 40 mg/kg i.p.
[18] = male, Wistar, rat, in vivo, brain, analyte after ibogaine 40 mg/kg i.p.

[2H]C([2H])Oc1ccc2[nH]c3c(c2c1)CCN1CC2CC(CC)C1C3C2 (stereo not drawn) [CD2HO-ibogamine]
degradation compared to ibogaine [1]: at least as fast or faster than ibogaine | formation of noribogaine compared to that of ibogaine [1]: as fast or slower

[2H]C([2H])([2H])C([2H])([2H])Oc1ccc2[nH]c3c(c2c1)CCN1CC2CC(CC)C1C3C2 (stereo not drawn) [CD3CD2O-ibogamine]
degradation compared to ibogaine [1]: at least as fast or faster than ibogaine | formation of noribogaine compared to that of ibogaine [1]: as fast or slower

[2H]C([2H])([2H])COc1ccc2[nH]c3c(c2c1)CCN1CC2CC(CC)C1C3C2 (stereo not drawn) [CD3CH2O-ibogamine]
degradation compared to ibogaine [1]: at least as fast or faster than ibogaine | formation of noribogaine compared to that of ibogaine [1]: as fast or slower

[2H]COc1ccc2[nH]c3c(c2c1)CCN1CC2CC(CC)C1C3C2 (stereo not drawn) [CDH2O-ibogamine]
degradation compared to ibogaine [1]: at least as fast or faster than ibogaine | formation of noribogaine compared to that of ibogaine [1]: as fast or slower

[2H]C([2H])(C)Oc1ccc2[nH]c3c(c2c1)CCN1CC2CC(CC)C1C3C2 (stereo not drawn) [CH3CD2O-ibogamine]
degradation compared to ibogaine [1]: at least as fast or faster than ibogaine | formation of noribogaine compared to that of ibogaine [1]: as fast or slower

[2H]C(C)Oc1ccc2[nH]c3c(c2c1)CCN1CC2CC(CC)C1C3C2 (stereo not drawn) [CH3CDHO-ibogamine]
degradation compared to ibogaine [1]: at least as fast or faster than ibogaine | formation of noribogaine compared to that of ibogaine [1]: as fast or slower

CCOc1ccc2[nH]c3c(c2c1)CCN1C[C@H]2C[C@H](CC)C1[C@H]3C2 [EtO-Ibogamine, 10-ethoxy-ibogamine]
% Remaining at 60 min (Buffer) [2]: 88% | Percentage turnover of test compounds (percent remaining) (in vitro; human, microsomes, 0 h, pH 7.4): 100% | Percentage turnover of test compounds (percent remaining) (in vitro; human, microsomes, 5 min, pH 7.4): 103% | Percentage turnover of test compounds (percent remaining) (in vitro; human, microsomes, 0.5 h, pH 7.4): 85% | % Remaining at 60 min (+NADPH) (in vitro; human, microsomes, 1 h, pH 7.4): 66% | % Remaining at 60 min (−NADPH) (in vitro; human, microsomes, 1 h, pH 7.4): 106% | Percentage turnover of test compounds (percent remaining) (in vitro; human, microsomes, 1 h, pH 7.4): 66% | Percentage turnover of test compounds (percent remaining) (in vitro; human, microsomes, […], pH 7.4): 98% | half-life (in vitro; human, microsomes, pH 7.4): > 1 h | CLh, int (in vitro; human, pH 7.4): 13 mL/min/kg | rate of conversion of the compound compared to that of ibogaine (in vitro; liver microsomes, species not given): essentially the same | CLh, int ([3]; RLM): 445 mL/min/kg | Percentage turnover of test compounds (percent remaining) ([3]; RLM, 0 min): 100% | Percentage turnover of test compounds (percent remaining) ([3]; RLM, 5 min): 77% | Percentage turnover of test compounds (percent remaining) ([3]; RLM, 15 min): 42% | Percentage turnover of test compounds (percent remaining) ([3]; RLM, 30 min): 3% | Percentage turnover of test compounds (percent remaining) ([3]; RLM, 60 min): 0% | % Remaining at 60 min (+NADPH) ([3]; RLM, summary): 0% | % Remaining at 60 min (−NADPH) ([3]; RLM, without NADPH): 88% | half-life at 10 μM ([3]; male, rat, microsomes, pH 7.4): 6 min

CCC1CC2CC3c4[nH]c5ccc(O)cc5c4CCN(C2)C13 (stereo not drawn) [Noribogaine]
Mean brain concentration [4, 5]: 2997 ng/g | Mean plasma concentration [4, 5]: 208 ng/mL | Mean brain concentration [4, 6]: 2383 ng/g | Mean plasma concentration [4, 6]: 312 ng/mL | Mean brain concentration [4, 7]: 10413 ng/g | Mean plasma concentration [4, 7]: 677 ng/mL | Mean brain concentration [4, 8]: 14563 ng/g | Mean plasma concentration [4, 8]: 1179 ng/mL | Mean brain concentration [4, 9]: 13254 ng/g | Mean plasma concentration [4, 9]: 736 ng/mL | Mean brain concentration [4, 10]: 17727 ng/g | Mean plasma concentration [4, 10]: 1455 ng/mL | Mean brain concentration [4, 11]: 14940 ng/g | Mean plasma concentration [4, 11]: 690 ng/mL | Mean brain concentration [4, 12]: 11692 ng/g | Mean plasma concentration [4, 12]: 846 ng/mL | Mean brain concentration [4, 13]: 10509 ng/g | Mean plasma concentration [4, 13]: 584 ng/mL | Mean brain concentration [4, 14]: 10540 ng/g | Mean plasma concentration [4, 14]: 861 ng/mL | AUClast ([4]; brain, analyte after CD3O-ibogamine 40 mg/kg i.p.): 36953.27 ng·h/g | AUClast ([4]; brain, analyte after ibogaine 40 mg/kg i.p.): 39658.47 ng·h/g | Mean brain concentration ([4]; male, Wistar, rat, in vivo): 17341 ng/g | Mean plasma concentration ([4]; male, Wistar, rat, in vivo): 871 ng/mL | AUC(0-t) [4, 15]: 1970 ng·h/mL | AUC(0-t) [4, 16]: 3030 ng·h/mL | Cmax [4, 17]: 14900 ng/g | Cmax [4, 18]: 17700 ng/g | Cmax [4, 15]: 736 ng/mL | Cmax [4, 16]: 1460 ng/mL | Tmax [4, 17]: 2 h | Tmax [4, 18]: 1 h | Tmax [4, 15]: 1 h | Tmax [4, 16]: 1 h
